Data reported in PubChem BioAssay AID1963833 (Molecular Pharmacology Branch, DTP, NCI, 2024).

Tested on: 883617-216-R-J1-PDC complex spheroid viability
Experiment: Anticancer human tumor 883617-216-R-J1-PDC patient-derived bladder carcinoma cell line growth inhibition [POLQ]
Conditions: for IC50: curve of first compound; for viability, T/C: stronger effect = lower value
In short: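 PDC + HUVEC + MSC complex spheroids; POLQ inhibitors ± partner drugs; top conc. at/near clinical Cmax, else 10 microM (SN-38 1 microM), half-log dilutions; 37 degrees C, 5% CO2.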

[1] = second compound 0.0316 µM, first compound 0.0316 µM
[2] = second compound 0.0316 µM, first compound 0.1 µM
[3] = second compound 0.0316 µM, first compound 0.316 µM
[4] = second compound 0.0316 µM, first compound 1 µM
[5] = second compound 0.0316 µM, first compound 3.16 µM
[6] = second compound 0.0316 µM, first compound 10 µM
[7] = second compound 0.1 µM, first compound 0.0316 µM
[8] = second compound 0.1 µM, first compound 0.1 µM
[9] = second compound 0.1 µM, first compound 0.316 µM
[10] = second compound 0.1 µM, first compound 1 µM
[11] = second compound 0.1 µM, first compound 3.16 µM
[12] = second compound 0.1 µM, first compound 10 µM
[13] = second compound 0.316 µM, first compound 0.0316 µM
[14] = second compound 0.316 µM, first compound 0.1 µM
[15] = second compound 0.316 µM, first compound 0.316 µM
[16] = second compound 0.316 µM, first compound 1 µM
[17] = second compound 0.316 µM, first compound 3.16 µM
[18] = second compound 0.316 µM, first compound 10 µM
[19] = second compound 1 µM, first compound 0.0316 µM
[20] = second compound 1 µM, first compound 0.1 µM
[21] = second compound 1 µM, first compound 0.316 µM
[22] = second compound 1 µM, first compound 1 µM
[23] = second compound 1 µM, first compound 3.16 µM
[24] = second compound 1 µM, first compound 10 µM
[25] = second compound 3.16 µM, first compound 0.0316 µM
[26] = second compound 3.16 µM, first compound 0.1 µM
[27] = second compound 3.16 µM, first compound 0.316 µM
[28] = second compound 3.16 µM, first compound 1 µM
[29] = second compound 3.16 µM, first compound 3.16 µM
[30] = second compound 3.16 µM, first compound 10 µM
[31] = second compound 10 µM, first compound 0.0316 µM
[32] = second compound 10 µM, first compound 0.1 µM
[33] = second compound 10 µM, first compound 0.316 µM
[34] = second compound 10 µM, first compound 1 µM
[35] = second compound 10 µM, first compound 3.16 µM
[36] = second compound 10 µM, first compound 10 µM
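Also: spheroids exposed to compounds for seven days before readout.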
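For viability, T/C in this document: 100% = DMSO vehicle control viability.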

`C#Cc1c(F)ccc2cc(O)cc(-c3ncc4c(N5CC6CCC(C5)N6)nc(OCC56CCCN5CC(F)C6)nc4c3F)c12` (stereo unspecified) + COC1C(OC(N)=O)C(O)C(Oc2ccc3c(O)c(NC(=O)c4ccc(O)c(CC=C(C)C)c4)c(=O)oc3c2C)OC1(C)C was tested, and the IC50 (second compound 0.0316 µM) was > 10 µM, the IC50 (second compound 0.1 µM) was > 10 µM and the IC50 (second compound 0.316 µM) was > 10 µM. The IC50 (second compound 1 µM) was > 10 µM, the IC50 (second compound 3.16 µM) was > 10 µM and the IC50 (second compound 10 µM) was > 10 µM. For the same molecule, the viability, T/C [1] was 90.3%, the viability, T/C [2] was 108% and the viability, T/C [3] was 96.2%. The viability, T/C [4] was 97.9%, the viability, T/C [5] was 81.1% and the viability, T/C [6] was 75%. The viability, T/C [7] was 121%, the viability, T/C [8] was 100% and the viability, T/C [9] was 90.4%. It also gave a viability, T/C [10] of 83.4%, a viability, T/C [11] of 87.3% and a viability, T/C [12] of 78.2%. For the same molecule, the viability, T/C [13] was 96.1%, the viability, T/C [14] was 114% and the viability, T/C [15] was 90%. The viability, T/C [16] was 91%, the viability, T/C [17] was 70.3% and the viability, T/C [18] was 67%. For the same molecule, the viability, T/C [19] was 99.7%, the viability, T/C [20] was 98.8% and the viability, T/C [21] was 83.8%. For the same molecule, the viability, T/C [22] was 91.4%, the viability, T/C [23] was 81.9% and the viability, T/C [24] was 86.3%. The viability, T/C [25] was 98.6%, the viability, T/C [26] was 93.6% and the viability, T/C [27] was 95.5%. For the same molecule, the viability, T/C [28] was 94.4%, the viability, T/C [29] was 84.4% and the viability, T/C [30] was 76.3%. It also gave a viability, T/C [31] of 85.8%, a viability, T/C [32] of 101% and a viability, T/C [33] of 101%. It also gave a viability, T/C [34] of 85.7%, a viability, T/C [35] of 91.8% and a viability, T/C [36] of 73.6%.

In the case of `CC(C)n1c(=O)n(C)c2cnc3cc(F)c(-c4ccc(OCCCN5CCCCC5)nc4)cc3c21` + COC1C(OC(N)=O)C(O)C(Oc2ccc3c(O)c(NC(=O)c4ccc(O)c(CC=C(C)C)c4)c(=O)oc3c2C)OC1(C)C, the IC50 (second compound 0.0316 µM) is reported as > 10 µM, the IC50 (second compound 0.1 µM) is reported as > 10 µM and the IC50 (second compound 0.316 µM) is reported as > 10 µM. The IC50 (second compound 1 µM) was > 10 µM, the IC50 (second compound 3.16 µM) was > 10 µM and the IC50 (second compound 10 µM) was > 10 µM. It also gave a viability, T/C [1] of 92.2%, a viability, T/C [2] of 94.5% and a viability, T/C [3] of 97.4%. It also gave a viability, T/C [4] of 93.1%, a viability, T/C [5] of 88.2% and a viability, T/C [6] of 65.1%. For the same molecule, the viability, T/C [7] was 99%, the viability, T/C [8] was 103% and the viability, T/C [9] was 93.9%. The viability, T/C [10] was 104%, the viability, T/C [11] was 91.8% and the viability, T/C [12] was 82.6%. For the same molecule, the viability, T/C [13] was 97%, the viability, T/C [14] was 92.2% and the viability, T/C [15] was 97.3%. It also gave a viability, T/C [16] of 101%, a viability, T/C [17] of 97% and a viability, T/C [18] of 76.3%. It also gave a viability, T/C [19] of 102%, a viability, T/C [20] of 103% and a viability, T/C [21] of 108%. The viability, T/C [22] was 91.2%, the viability, T/C [23] was 94.1% and the viability, T/C [24] was 84.5%. It also gave a viability, T/C [25] of 109%, a viability, T/C [26] of 108% and a viability, T/C [27] of 110%. It also gave a viability, T/C [28] of 95.7%, a viability, T/C [29] of 95.9% and a viability, T/C [30] of 81%. For the same molecule, the viability, T/C [31] was 106%, the viability, T/C [32] was 97.3% and the viability, T/C [33] was 102%. For the same molecule, the viability, T/C [34] was 98.3%, the viability, T/C [35] was 78.9% and the viability, T/C [36] was 72.8%.

`CC1COCCN1c1cc(C2(O)CC3CCC(C2)O3)c2cnn(-c3ccn[nH]3)c2n1` (stereo unspecified) + COC1C(OC(N)=O)C(O)C(Oc2ccc3c(O)c(NC(=O)c4ccc(O)c(CC=C(C)C)c4)c(=O)oc3c2C)OC1(C)C gave an IC50 (second compound 0.0316 µM) of 0.102 µM, an IC50 (second compound 0.1 µM) of 0.17 µM and an IC50 (second compound 0.316 µM) of 0.135 µM. For the same molecule, the IC50 (second compound 1 µM) was 0.0906 µM, the IC50 (second compound 3.16 µM) was 0.135 µM and the IC50 (second compound 10 µM) was 0.107 µM. For the same molecule, the viability, T/C [1] was 72.8%, the viability, T/C [2] was 49.2% and the viability, T/C [3] was 35.2%. It also gave a viability, T/C [4] of 34.4%, a viability, T/C [5] of 24.9% and a viability, T/C [6] of 21.8%. It also gave a viability, T/C [7] of 66.8%, a viability, T/C [8] of 56.8% and a viability, T/C [9] of 42.3%. For the same molecule, the viability, T/C [10] was 27.6%, the viability, T/C [11] was 25% and the viability, T/C [12] was 21.8%. The viability, T/C [13] was 68.4%, the viability, T/C [14] was 53.1% and the viability, T/C [15] was 40.9%. The viability, T/C [16] was 27.7%, the viability, T/C [17] was 25.6% and the viability, T/C [18] was 21.7%. The viability, T/C [19] was 73.4%, the viability, T/C [20] was 45.2% and the viability, T/C [21] was 37.1%. The viability, T/C [22] was 30.7%, the viability, T/C [23] was 25.9% and the viability, T/C [24] was 22.3%. For the same molecule, the viability, T/C [25] was 68.7%, the viability, T/C [26] was 52.4% and the viability, T/C [27] was 40.9%. The viability, T/C [28] was 32.4%, the viability, T/C [29] was 27.8% and the viability, T/C [30] was 21.3%. The viability, T/C [31] was 58.5%, the viability, T/C [32] was 52.5% and the viability, T/C [33] was 42.9%. For the same molecule, the viability, T/C [34] was 31.2%, the viability, T/C [35] was 29.1% and the viability, T/C [36] was 23%.
